# Experimental data reported in article PMC9551036, “A selective and orally bioavailable VHL-recruiting PROTAC achieves SMARCA2 degradation in vivo” (Nature Communications, 2022).
# Values joined by “and” are separate entries in the source; they are usually repeats but may differ in a detail not shown here. Identical values can stand only once. Like-named read-outs stand apart in the source and are kept apart here.
# Columns and labels:
# [1] = biological target: SMARCA2 (Homo sapiens, UniProt P51531); experiment: Western blot of SMARCA2 degradation in NCI-H1568 cells; format: cell-based; parameters: endogenous in cells; host or cells: RKO, NCI-H1568, A549, HCT116, LU99, HCC-364, HCT-15, HCC4006, SK-N-AS
# Method: Cells were seeded into 6-well plates 24 h before treatment. Next day, several wells were treated with compounds or DMSO as indicated, washed with PBS and lysed with lysis buffer (1% Triton X-100, 150 mM NaCl, 1 mM EDTA, 50 mM Tris pH 7.4, protease inhibitor cocktail (Roche), 50 units/mL benzonase nuclease (Sigma)). Lysates were cleared by centrifugation at 4 °C, at 15,800 × g for 10 min and the supernatants stored at −20 °C. Protein concentration was determined by BCA assay (Pierce) and the absorbance at 562 nm measured by spectrophotometry (NanoDrop ND1000). […] Western blot images were obtained through detection of SMARCA2 (Sigma #HPA029981 RRID:AB_10602406 1:1000), SMARCA4 (Abcam #ab108318 clone EPR3912 RRID:AB_10889900 1:1000), PBRM1 (Bethyl Laboratories #A301-591A RRID:AB_1078808 1:1000), β-actin (Cell Signalling #4970 clone 13E5 RRID:AB_2223172 1:2500) and GAPDH (Abcam #ab9485 RRID:AB_307275 1:2500) antibodies with IRDye 800CW donkey anti-rabbit secondary antibody (LI-COR #926-32213 RRID:AB_621848 1:10000) using a ChemiDoc MP imaging system (Bio-Rad). Western blots were quantified using Image Studio Lite (Licor, version 5.2) with normalisation to loading control and DMSO and further analysed using GraphPad Prism (version 9.2.0).
# [2] = biological target: SMARCA4 (Homo sapiens, UniProt P51532); experiment: SMARCA4 capillary electrophoresis protein assay in other cell lines (HCT116, LU99, HCC-364, HCT-15, HCC4006, SK-N-AS); format: cell-based; parameters: endogenous in cells; host or cells: RKO, HCT116, LU99, HCC-364, HCT-15, HCC4006, SK-N-AS; settings: for Bottom (best-fit value, % protein remaining) / DC50 / HillSlope: four-parameter fit; for LogEC50: log10 of concentration in mol/l; for DC50: protein degradation, read-out: EC50 (the source's name)
# Method: 130,000–200,000 cells were seeded in 24-well plates and incubated until settled down or overnight. Compounds were dissolved in DMSO and added to cells in indicated concentrations using a digital dispenser following an optional media change. […] For SMARCA2/4 half-life determination, 150,000 or 200,000 cells were seeded in 24-well plates. […] For SMARCA2/4 re-synthesis measurements, 200,000 cells were seeded in 24-well plates. […] Medium was removed, cells were washed with PBS and lysed with 80 µl Lysis Buffer (MSD Tris Lysis Buffer (#R60TX-2) + Halt Inhibitor Cocktail (100x) + Benzonase 0.5 µL/ml). Samples were frozen at −80 °C and thawed at room temperature before use. Samples were transferred to a V-bottom plate and insoluble debris was pelleted by centrifugation for 5 min at maximum speed. The supernatant was transferred to a fresh plate. Master Mix and Ladder were prepared according to manufacturer’s instructions for 12–230 kDa Wes Separation Module, 8 × 25 capillary cartridges, Protein Simple #SM-W004 with Anti-Rabbit Detection Module for Wes, Peggy Sue or Sally Sue, Protein Simple #DM-001. 4.8 µl lysate were mixed with 1.2 µl Master Mix to achieve a protein concentration of ~0.5 µg/µl. […] Wes plates were prepared and run according to manufacturer’s instructions. Proteins were quantified with accompanying Compass Software. SMARCA2/4 protein levels were normalised to GAPDH. […] Where applicable, curves were fitted using a 4-parametric logistic model.
# [3] = SuppFig3a, 10 nM, per replicate
# [4] = SuppFig3a, 100 nM, per replicate
# [5] = SuppFig3a, 1000 nM, per replicate
# [6] = SuppFig3c, compound 100 nM + MG132 10 uM
# [7] = SuppFig3c, compound 100 nM + VH298 10 uM
# [8] = SuppFig3c, compound 100 nM alone
# Sequence of SMARCA4 (P51532 whole entry): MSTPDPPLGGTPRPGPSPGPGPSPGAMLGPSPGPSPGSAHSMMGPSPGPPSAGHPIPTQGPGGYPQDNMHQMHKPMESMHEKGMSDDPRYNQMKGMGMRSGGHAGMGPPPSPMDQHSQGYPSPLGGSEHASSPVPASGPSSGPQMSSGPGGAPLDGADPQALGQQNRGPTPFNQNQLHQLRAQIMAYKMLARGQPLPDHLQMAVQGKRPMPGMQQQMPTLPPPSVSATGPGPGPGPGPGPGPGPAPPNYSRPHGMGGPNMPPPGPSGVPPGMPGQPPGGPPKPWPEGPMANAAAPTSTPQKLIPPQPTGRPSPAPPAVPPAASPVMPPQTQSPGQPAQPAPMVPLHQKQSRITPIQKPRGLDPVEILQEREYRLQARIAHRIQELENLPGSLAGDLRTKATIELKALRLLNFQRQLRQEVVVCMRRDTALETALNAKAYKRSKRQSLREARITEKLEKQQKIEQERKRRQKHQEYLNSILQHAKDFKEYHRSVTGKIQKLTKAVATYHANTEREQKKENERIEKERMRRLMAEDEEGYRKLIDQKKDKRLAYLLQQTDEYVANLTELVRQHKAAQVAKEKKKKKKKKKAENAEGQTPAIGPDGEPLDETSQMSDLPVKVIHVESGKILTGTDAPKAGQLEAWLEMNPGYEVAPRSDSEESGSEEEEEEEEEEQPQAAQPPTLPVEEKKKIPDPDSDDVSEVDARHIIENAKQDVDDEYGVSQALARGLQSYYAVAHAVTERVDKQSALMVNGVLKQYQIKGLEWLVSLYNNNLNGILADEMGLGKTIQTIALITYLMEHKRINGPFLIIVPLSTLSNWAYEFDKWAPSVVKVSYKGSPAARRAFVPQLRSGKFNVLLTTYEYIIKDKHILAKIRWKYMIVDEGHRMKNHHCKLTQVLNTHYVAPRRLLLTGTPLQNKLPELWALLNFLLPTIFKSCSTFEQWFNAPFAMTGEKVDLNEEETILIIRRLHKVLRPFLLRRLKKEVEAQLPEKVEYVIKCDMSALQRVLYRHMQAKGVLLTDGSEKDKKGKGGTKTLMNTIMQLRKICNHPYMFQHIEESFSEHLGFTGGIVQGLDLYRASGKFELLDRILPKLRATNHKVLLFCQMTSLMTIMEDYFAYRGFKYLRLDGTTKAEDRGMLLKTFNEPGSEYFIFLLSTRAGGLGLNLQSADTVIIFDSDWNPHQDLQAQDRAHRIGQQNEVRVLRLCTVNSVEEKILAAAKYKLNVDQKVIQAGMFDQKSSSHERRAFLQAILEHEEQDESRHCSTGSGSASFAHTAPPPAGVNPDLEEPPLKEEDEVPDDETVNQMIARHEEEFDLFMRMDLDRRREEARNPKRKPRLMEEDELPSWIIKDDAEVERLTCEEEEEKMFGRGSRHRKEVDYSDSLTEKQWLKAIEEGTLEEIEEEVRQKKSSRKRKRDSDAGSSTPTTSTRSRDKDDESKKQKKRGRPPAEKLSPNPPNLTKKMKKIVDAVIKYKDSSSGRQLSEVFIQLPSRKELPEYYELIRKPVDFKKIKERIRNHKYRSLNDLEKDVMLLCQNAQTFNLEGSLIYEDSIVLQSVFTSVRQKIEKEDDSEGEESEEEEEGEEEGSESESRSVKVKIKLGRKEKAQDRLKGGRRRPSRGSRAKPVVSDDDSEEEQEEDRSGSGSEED
# Sequence of SMARCA2 (P51531 whole entry): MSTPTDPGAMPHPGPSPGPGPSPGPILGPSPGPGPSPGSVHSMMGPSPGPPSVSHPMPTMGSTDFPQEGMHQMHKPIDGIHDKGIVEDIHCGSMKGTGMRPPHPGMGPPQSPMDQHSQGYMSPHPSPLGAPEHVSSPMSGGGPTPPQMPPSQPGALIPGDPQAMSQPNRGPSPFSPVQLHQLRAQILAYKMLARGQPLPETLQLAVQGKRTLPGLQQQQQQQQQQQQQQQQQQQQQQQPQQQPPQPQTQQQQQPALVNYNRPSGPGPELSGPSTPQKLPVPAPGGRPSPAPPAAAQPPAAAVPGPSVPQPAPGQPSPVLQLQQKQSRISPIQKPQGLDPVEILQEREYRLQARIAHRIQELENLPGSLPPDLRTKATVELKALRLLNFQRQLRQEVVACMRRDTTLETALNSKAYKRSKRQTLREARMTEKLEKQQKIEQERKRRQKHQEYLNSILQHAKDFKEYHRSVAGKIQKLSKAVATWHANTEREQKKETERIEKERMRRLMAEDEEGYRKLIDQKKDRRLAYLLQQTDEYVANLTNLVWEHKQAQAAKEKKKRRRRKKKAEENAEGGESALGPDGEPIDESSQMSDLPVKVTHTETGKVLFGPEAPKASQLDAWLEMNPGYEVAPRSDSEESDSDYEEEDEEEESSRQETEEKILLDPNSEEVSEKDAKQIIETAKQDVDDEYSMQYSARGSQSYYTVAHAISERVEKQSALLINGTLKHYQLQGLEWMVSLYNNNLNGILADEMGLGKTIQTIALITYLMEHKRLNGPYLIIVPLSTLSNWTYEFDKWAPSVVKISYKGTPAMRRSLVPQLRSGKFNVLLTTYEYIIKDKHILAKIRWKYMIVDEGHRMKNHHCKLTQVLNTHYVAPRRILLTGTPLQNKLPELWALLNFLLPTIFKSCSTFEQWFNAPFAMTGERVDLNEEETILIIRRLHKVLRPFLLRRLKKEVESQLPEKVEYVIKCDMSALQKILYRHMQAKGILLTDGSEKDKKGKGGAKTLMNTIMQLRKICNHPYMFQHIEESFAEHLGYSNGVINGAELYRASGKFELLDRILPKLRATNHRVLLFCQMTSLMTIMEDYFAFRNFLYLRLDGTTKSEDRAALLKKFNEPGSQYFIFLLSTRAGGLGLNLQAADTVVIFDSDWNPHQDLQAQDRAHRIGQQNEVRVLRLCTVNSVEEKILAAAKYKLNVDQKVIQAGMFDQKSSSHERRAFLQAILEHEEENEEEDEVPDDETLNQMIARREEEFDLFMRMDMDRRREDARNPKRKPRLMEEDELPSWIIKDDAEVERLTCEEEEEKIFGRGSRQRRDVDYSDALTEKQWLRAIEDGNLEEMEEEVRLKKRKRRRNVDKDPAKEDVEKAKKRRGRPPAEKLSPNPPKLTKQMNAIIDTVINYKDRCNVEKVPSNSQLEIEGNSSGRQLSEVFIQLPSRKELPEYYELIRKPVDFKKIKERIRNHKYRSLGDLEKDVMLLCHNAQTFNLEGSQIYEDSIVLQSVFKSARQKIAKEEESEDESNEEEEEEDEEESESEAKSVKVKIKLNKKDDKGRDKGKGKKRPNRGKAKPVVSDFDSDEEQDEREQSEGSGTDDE
compound,measurement,setting,value
Cc1ncsc1-c1ccc(C(CCC(C)CCN2CCC(c3ccc4c(c3)n(C3CCCC3)c3nc(=O)c5c(Br)cccc5n43)CC2)NC(=O)C2CC(O)CN2C(=O)C(NC(=O)C2(F)CC2)C(C)(C)C)cc1 (stereo not drawn) [ACBI2],"SMARCA2 degradation, % DMSO","[1]; SuppFig3a, 1 nM, per replicate",73.2377 % DMSO and 115.98 % DMSO and 86.1519 % DMSO
same,smarca2/actin norm to DMSO,"[1]; SuppFig3a, 1 nM, per replicate",0.7324 and 1.1598 and 0.8615
same,"SMARCA2 degradation, % DMSO",[1]; [3],22.5404 % DMSO and 46.107 % DMSO and 14.5628 % DMSO
same,smarca2/actin norm to DMSO,[1]; [3],0.2254 and 0.4611 and 0.1456
same,"SMARCA2 degradation, % DMSO",[1]; [4],4.651 % DMSO and 9.376 % DMSO and 28.142 % DMSO
same,smarca2/actin norm to DMSO,[1]; [4],0.04651 and 0.09376 and 0.2814
same,"SMARCA2 degradation, % DMSO",[1]; [5],10.8582 % DMSO and 28.1242 % DMSO and 17.6912 % DMSO
same,smarca2/actin norm to DMSO,[1]; [5],0.1086 and 0.2812 and 0.1769
same,"SMARCA2 - combination with inhibitors, % DMSO",[1]; [6],144.315 % DMSO and 128.607 % DMSO and 88.3654 % DMSO
same,smarca2/actin norm to DMSO,[1]; [6],1.443 and 1.286 and 0.8837
same,"SMARCA2 - combination with inhibitors, % DMSO",[1]; [7],71.7463 % DMSO and 98.6474 % DMSO and 62.3416 % DMSO
same,smarca2/actin norm to DMSO,[1]; [7],0.7175 and 0.9865 and 0.6234
same,"SMARCA2 - combination with inhibitors, % DMSO",[1]; [8],15.1306 % DMSO and 12.518 % DMSO and 13.0375 % DMSO
same,smarca2/actin norm to DMSO,[1]; [8],0.1513 and 0.1252 and 0.1304
same,"Bottom (best-fit value, % protein remaining)",[2]; HCC4006_SM4,9.858%
same,% protein remaining,"[2]; HCC4006_SM4, log10[concentration (mol/l)] -6",8.466% and 14.8549% and 6.254%
same,% protein remaining,"[2]; HCC4006_SM4, log10[concentration (mol/l)] -8",107.17% and 168.214% and 84.8869%
same,% protein remaining,"[2]; HCC4006_SM4, log10[concentration (mol/l)] -10",87.4945% and 108.459% and 92.3747%
same,LogEC50,[2]; HCC4006_SM4,-7.029
same,DC50,[2]; HCC4006_SM4,93.5 nM
same,"Bottom (best-fit value, % protein remaining)",[2]; HCC-364_SM4,3.161%
same,HillSlope,[2]; HCC-364_SM4,-1.653
same,% protein remaining,"[2]; HCC-364_SM4, log10[concentration (mol/l)] -6",3.167% and 1.374% and 3.983%
same,% protein remaining,"[2]; HCC-364_SM4, log10[concentration (mol/l)] -7",9.937% and 9.321% and 6.672%
same,% protein remaining,"[2]; HCC-364_SM4, log10[concentration (mol/l)] -8",73.4926% and 97.1764% and 52.0353%
same,% protein remaining,"[2]; HCC-364_SM4, log10[concentration (mol/l)] -9",95.3509% and 123.202% and 101.968%
same,% protein remaining,"[2]; HCC-364_SM4, log10[concentration (mol/l)] -10",89.9664% and 104.013% and 115.065%
same,LogEC50,[2]; HCC-364_SM4,-7.78
same,DC50,[2]; HCC-364_SM4,16.6 nM
same,"Bottom (% protein remaining, four-parameter fit)","[2]; HCT116, SM4",25.06%
same,HillSlope (protein remaining),"[2]; HCT116, SM4",-2.072
same,"Top (% protein remaining, four-parameter fit)","[2]; HCT116, SM4",134.1%
same,% protein remaining,"[2]; HCT116, SM4, conc 9.54e-12 mol/l",111.196% and 129.494%
same,% protein remaining,"[2]; HCT116, SM4, conc 3.81e-11 mol/l",120.316% and 148.32%
same,% protein remaining,"[2]; HCT116, SM4, conc 1.53e-10 mol/l",129.784% and 140.879%
same,% protein remaining,"[2]; HCT116, SM4, conc 6.1e-10 mol/l",129.281% and 147.637%
same,% protein remaining,"[2]; HCT116, SM4, conc 2.44e-9 mol/l",120.666% and 159.63%
same,% protein remaining,"[2]; HCT116, SM4, conc 9.77e-9 mol/l",125.866% and 131.203%
same,% protein remaining,"[2]; HCT116, SM4, conc 3.91e-8 mol/l",69.9313% and 71.3683%
same,% protein remaining,"[2]; HCT116, SM4, conc 1.56e-7 mol/l",36.8806% and 32.4224%
same,% protein remaining,"[2]; HCT116, SM4, conc 6.25e-7 mol/l",24.622% and 20.2431%
same,% protein remaining,"[2]; HCT116, SM4, conc 2.5e-6 mol/l",26.4349% and 21.0447%
same,HillSlope,[2]; HCT-15_SM4,-0.3445
same,% protein remaining,"[2]; HCT-15_SM4, log10[concentration (mol/l)] -6",18.6748% and 17.1977% and 14.8633%
same,% protein remaining,"[2]; HCT-15_SM4, log10[concentration (mol/l)] -7",73.6571% and 71.0762% and 61.1459%
same,% protein remaining,"[2]; HCT-15_SM4, log10[concentration (mol/l)] -8",98.6414% and 84.1205% and 64.0182%
same,% protein remaining,"[2]; HCT-15_SM4, log10[concentration (mol/l)] -9",109.23% and 94.5032% and 92.8527%
same,% protein remaining,"[2]; HCT-15_SM4, log10[concentration (mol/l)] -10",99.1975% and 103.016%
same,"Bottom (best-fit value, % protein remaining)",[2]; LU99_SM4,6.337%
same,HillSlope,[2]; LU99_SM4,-1.201
same,% protein remaining,"[2]; LU99_SM4, log10[concentration (mol/l)] -8",52.7226% and 80.027% and 88.2243% and 72.2723%
same,% protein remaining,"[2]; LU99_SM4, log10[concentration (mol/l)] -9",95.2248% and 87.3538% and 102.946% and 96.8042%
same,% protein remaining,"[2]; LU99_SM4, log10[concentration (mol/l)] -10",95.6247% and 91.3% and 105.138% and 100.656%
same,LogEC50,[2]; LU99_SM4,-7.559
same,DC50,[2]; LU99_SM4,27.6 nM
same,"Bottom (best-fit value, % protein remaining)",[2]; SK-N-AS_SM4,7.287%
same,HillSlope,[2]; SK-N-AS_SM4,-0.8189
same,% protein remaining,"[2]; SK-N-AS_SM4, log10[concentration (mol/l)] -6",10.7051% and 13.0346%
same,% protein remaining,"[2]; SK-N-AS_SM4, log10[concentration (mol/l)] -8",53.489% and 73.7834%
same,% protein remaining,"[2]; SK-N-AS_SM4, log10[concentration (mol/l)] -9",84.3752% and 77.8596%
same,% protein remaining,"[2]; SK-N-AS_SM4, log10[concentration (mol/l)] -10",91.2323% and 74.8856%
same,LogEC50,[2]; SK-N-AS_SM4,-7.454
same,DC50,[2]; SK-N-AS_SM4,35.2 nM
